# Values joined by “and” are separate entries in the source; they are usually repeats but may differ in a detail not shown here. Identical values can stand only once. “Also recorded” adds a separate entry of the source.
# What was measured:
# [1] = Effectiveness test of AII fragments (test not specified)
# Female C57B1/6 mice = assay: Gastrointestinal mucositis induced by cyclophosphamide injection into mice, histological scoring; type: in vivo; design: key to Overall score: 0: No lesion; <10% Crypts distorted; 2: >10% Crypts distorted, no necrotic cells; 3: >10% Crypts distorted, occasional necrotic cell; 4: Same as 3 except more extensive; key to Epithelium score / Crypt Architecture score: 0: Normal; <10% Crypt distortion; 2: 10–50% Crypt distortion; 3: >50% Crypt distortion; conditions: for Epithelium score / Crypt Architecture score / Overall score: AII(1–7) 100 μg/kg s.c., one line per animal
# Experimental: Female C57B1/6 mice were given an intraperitoneal injection of cyclophosphamide at concentrations of 200 or 250 mg/kg. After 2 days, the mice began treatment with either AII(1–7) (100 μg/kg), or phosphate buffered saline, both of which were given subcutaneously. The baseline weight of the mice was determined, and the mice were observed daily for 7–14 days, after which the animals were necropsied. Samples from the intestines were taken at four levels, in that the intestine was cut transversely at four places along the intestinal tract, from which histological preparations were made and evaluated, in order to reduce bias due to site selection. The samples were fixed in formalin for histological evaluation of crypt distortion and architecture, as well as epithelial attenuation. The crypt is a part of the gastrointestinal tract where the mucosal glands reside. Crypt distortion is a measure of the amount of disruption to the tissue that occurs as a result of mucosal damage. The epithelium is the cell/mucosal lining to the gastrointestinal tract. Epithelial attenuation is a measure of the amount of destruction to the epithelial lining.
# Histological scoring was performed in a blinded fashion. The scores on the accompanying table were given on the following scale: […]
# [2] = system: patients with newly diagnosed breast cancer receiving doxorubicin and cyclophosphamide; assay: Phase I/II dose escalation study of AII(1–7) in chemotherapy patients: incidence of stomatitis (oral mucositis); type: in vivo; conditions: for Stomatitis (incidents of stomatitis associated with chemotherapy): chemotherapy patients (doxorubicin/cyclophosphamide), subcutaneous treatment, AII(1-7) n = 14, filgrastim n = 5
# Experimental: The Phase I/II study was a prospective, open-label, dose-escalation study comparing the effects of AII(1–7 (SEQ ID NO:4)) in patients with newly diagnosed breast cancer receiving doxorubicin 60 mg/m^2 and cyclophosphamide 600 mg/m^2 for at least 3 cycles of adjuvant chemotherapy following surgical tumor reduction. A filgrastim comparator arm was used to compare safety and response variables and to assess synergy of AII(1–7) with filgrastim (NEUPOGEN®, Amgen, Inc., Thousand Oaks, Calif.).
# Patients who satisfied the inclusion/exclusion criteria received a once daily subcutaneous injection of the given AII(1–7) dose level for 7 days followed by a 1 week rest period prior to any chemotherapy (cycle 0) in the interval between tumor reduction and planned chemotherapy. Dose escalation within an individual patient was not permitted.
# Following the rest period, a chemotherapy regimen containing doxorubicin 60 mg/m^2 and cyclophosphamide 600 mg/m^2 was initiated. AII(1–7) was administered for at least 10 days, or until the absolute neutrophil count (ANC)>1500/μL for 2 days, beginning two days after chemotherapy. Up to three chemotherapy cycles followed by AII(1–7) administration will be repeated every 21 days or as indicated by patient tolerance. Any patient that fails to achieve an ANC>1500/μL by day 15 (13 days of AII(1–7)) received a filgrastim rescue of 5.0 μg/kg/day until the ANC>1500/μL for 2 days.
# During the conduct of the AII (1–7) clinical trial to examine the effect of subcutaneous injection of AII(1–7) on hematological recovery in new breast cancer patients receiving chemotherapy (doxorubicin/cyclophosphamide), adverse events that occurred were collected.
# An adverse event (AE) was considered any unfavorable or unintended change in structure, function, signs, or symptoms temporally associated with the use of a medicinal product experienced by a person administered a pharmaceutical product, whether or not a causal relationship with the product has been established. During the conduct of this clinical trial, study personnel asked open-ended questions to obtain information about AEs at every visit. Signs and symptoms were graded by the Investigator using the WHO toxicity criteria. […] If there was stomatitis, it was graded on a four point scale as: […]
# [3] = cyclophosphamide 200 mg/kg i.p., listed as A(1-7)
# [4] = cyclophosphamide 250 mg/kg i.p., listed as A(1-7)
molecule,measurement,setting,value
His-Pro-Phe (HPF) [AII(6–8)],Effectiveness,[1],not to be effective
Tyr-Ile-His-Pro-Phe (YIHPF) [AII(4–8)],Effectiveness,[1],not to be effective; also recorded: ineffective
Asp-Arg-Val-Tyr-Ile-His-Pro [AII(1–7)],Epithelium score,Female C57B1/6 mice; cyclophosphamide 200 mg/kg i.p.,1 (Mild Attenuation (<10%))
same,Crypt Architecture score,Female C57B1/6 mice; [3],0 and 1 (<10% Crypt distortion) (2×)
same,Overall score,Female C57B1/6 mice; [3],0 and 1 (<10% Crypts distorted) (2×)
same,Crypt Architecture score,Female C57B1/6 mice; [4],1 (<10% Crypt distortion) (2×) and 2 (10–50% Crypt distortion)
same,Epithelium score,Female C57B1/6 mice; [4],0 and 1 (Mild Attenuation (<10%)) (2×)
same,Overall score,Female C57B1/6 mice; [4],"0 and 1 (<10% Crypts distorted) and 2 (>10% Crypts distorted, no necrotic cells)"
same,Level of gastrointestinal mucositis by all histological scores,Female C57B1/6 mice; versus saline,reduced
same,Reduction of the frequency of stomatitis relative to that observed with filgrastim treatment,[2]; chemotherapy patients,30%
same,Stomatitis (incidents of stomatitis associated with chemotherapy),[2],40%
same,Effect on stomatitis (oral mucositis) relative to control,"[2]; subcutaneous administration, chemotherapy patients",reduced; also recorded: significantly decreased
"filgrastim (protein, chains of the INN, looked up, filgrastim (NEUPOGEN®, Amgen, Inc.), comparator arm) MTPLGPASSLPQSFLLKCLEQVRKIQGDGAALQEKLCATYKLCHPEELVLLGHSLGIPWAPLSSCPSQALQLAGCLSQLHSGLFLYQGLLQALEGISPELGPTLDTLQLDVADFATTIWQQMEELGMAPALQPTQGAMPAFASAFQRRAGGVLVASHLQSFLEVSYRVLRHLAQP",Stomatitis (incidents of stomatitis associated with chemotherapy),[2],60%

# Reference: patent publication US7176183B2, “Methods for treating and preventing damage to mucosal tissue” (University of Southern California, priority 1999, dated 2007)
